# Results taken from PMC11573166, “Sodium-dependent glucose co-transport proteins (SGLTs) are not involved in human glucose taste detection” (PLOS ONE, 2024).
# Biological target: T1, human SGLT1 (hSGLT1) (Homo sapiens, UniProt P13866)
# T1 construct: gene SLC5A1; Full length human SGLT1 (NP_000334)
# T1 sequence (P13866 1-664): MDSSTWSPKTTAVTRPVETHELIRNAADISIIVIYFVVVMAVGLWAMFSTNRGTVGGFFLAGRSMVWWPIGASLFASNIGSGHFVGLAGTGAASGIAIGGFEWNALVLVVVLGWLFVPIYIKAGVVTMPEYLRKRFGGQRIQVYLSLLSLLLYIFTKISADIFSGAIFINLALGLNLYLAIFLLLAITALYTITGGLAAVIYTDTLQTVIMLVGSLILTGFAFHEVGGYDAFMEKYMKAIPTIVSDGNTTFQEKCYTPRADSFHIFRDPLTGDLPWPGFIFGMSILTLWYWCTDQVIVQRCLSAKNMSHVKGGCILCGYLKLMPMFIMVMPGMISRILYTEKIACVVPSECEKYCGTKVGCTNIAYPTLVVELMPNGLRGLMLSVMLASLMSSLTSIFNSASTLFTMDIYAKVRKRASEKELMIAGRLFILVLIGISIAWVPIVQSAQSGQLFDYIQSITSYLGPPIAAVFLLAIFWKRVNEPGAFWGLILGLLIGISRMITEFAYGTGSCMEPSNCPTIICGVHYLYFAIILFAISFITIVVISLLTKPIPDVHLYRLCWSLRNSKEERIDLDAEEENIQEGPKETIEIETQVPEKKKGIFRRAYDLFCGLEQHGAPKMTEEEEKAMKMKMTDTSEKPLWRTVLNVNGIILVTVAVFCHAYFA
# Experiment: FLIPR membrane potential assay in CHO cells transiently expressing hSGLT1; mock-transfected cells did not respond
# Type: cell-based
smiles,measurement,value
OC[C@H]1OC(O)[C@H](O)[C@@H](O)[C@@H]1O (stereo partly drawn) [D-glucose],EC50,452 µM
